These results are taken from US8110687B2, “Bicyclic compounds with kinase inhibitory activity” (Millennium Pharmaceuticals, Inc., priority 2005, dated 2012).

The experiment has as its system phospho-ERK formation (Raf kinase activity) in A375 cells. In words: Phospho-ERK ELISA assay. The format is cell-based. As to conditions: Homo sapiens, A-375, 3 h, 3 hours with inhibitor, read-out: IC50, inhibition of the formation of phospho-ERK. The method, then: Inhibition of Raf kinase activity in whole cell systems can be assessed by determining the decrease in phosphorylation of Raf kinase substrates. Any known Raf kinase substrate can be used to measure inhibition of Raf kinase activity in a whole cell system.
Medium was removed, and cells were incubated with Raf kinase inhibitors for 3 hours at 37° C. Medium was removed, and cells were fixed with 4% paraformaldehyde for 15 minutes at room temperature.
Methanol was added for 15 min. Cells were removed and blocked with 10% sheep serum and 1% BSA in PBS overnight at 4° C. Cells were incubated with anti-p44/42MAPK antibody (1:100, Cell Signaling Technologies, #9101L) (20 μL/well) for one hour at room temperature. After washing with PBS three times, cells were stained with anti-rabbit horseradish peroxidase-linked antibody from donkey (1:100, Amersham Bioscience #NA934V) for 1 hour at room temperature. Cells were washed three times with 0.5% Tween-20 in PBS and twice with PBS. 3,3′, 5,5′-Tetramethylbenzidine (TMB) liquid substrate system (Sigma, #T8665) (50 μL/well) was added, and cells were incubated for 30-45 minutes at room temperature. Optical density was read at 650 nm. Cells were then washed 3-5 times with PBS to remove color solution. Results were normalized for the protein content in each well using a BCA protein assay kit (Pierce).
In the case of `CC(C)(C)c1cccc(NC(=O)c2ccc3ccc(Oc4ccnc(C5=NCCN5)c4)cc3n2)c1` [Compound I-50, N-(3-tert-butylphenyl)-7-{[2-(4,5-dihydro-1H-imidazol-2-yl)pyridin-4-yl]oxy}quinoline-2-carboxamide], the IC50 is not above 25 µM.

On to `O=C(Nc1ccc(Cl)c(C(F)(F)F)c1)c1cc2cc(Oc3ccnc(C4=NCCN4)c3)ccc2cn1` [Compound I-35, N-[4-chloro-3-(trifluoromethyl)phenyl]-6-{[2-(4,5-dihydro-1H-imidazol-2-yl)pyridin-4-yl]oxy}isoquinoline-3-carboxamide], for which the IC50 is not above 25 µM.

`CC(C)(C)c1cccc(NC(=O)c2ccc3ccc(Oc4ccnc(C(=N)N5CCCC5)c4)cc3c2)c1` [Compound I-93, N-(3-tert-butylphenyl)-7-({2-[imino(pyrrolidin-1-yl)methyl]pyridin-4-yl}oxy)-2-naphthamide]: the IC50 is not above 25 µM.

On to `COC(=O)NCc1cc(Oc2ccc3c(c2)CC(C(=O)Nc2cc(CN)cc(C(F)(F)F)c2)CC3)ccn1` (stereo not drawn) [Compound I-192, methyl [(4-{[7-({[3-(aminomethyl)-5-(trifluoromethyl)phenyl]amino}carbonyl)-5,6,7,8-tetrahydronaphthalen-2-yl]oxy}pyridin-2-yl)methyl]carbamate], for which the IC50 was not above 25 µM.

Regarding `CC(C)(C)c1cccc(NC(=O)C2CCc3ccc(Oc4ccnc(-c5nc(C(=O)O)c[nH]5)c4)cc3C2)c1` (stereo not drawn) [Compound I-155, 2-{4-[(7-{[(3-tert-Butylphenyl)amino]carbonyl}-5,6,7,8-tetrahydronaphthalen-2-yl)oxy]pyridin-2-yl}-1H-imidazole-4-carboxylic acid], the IC50 was not above 25 µM.

Turning to `CC(C)(C)c1cccc(NC(=O)c2ccc3ccc(Oc4ccnc(C(=N)N5CCOCC5)c4)cc3c2)c1` [Compound I-99, N-(3-tert-butylphenyl)-7-({2-[imino(morpholin-4-yl)methyl]pyridin-4-yl}oxy)-2-naphthamide], the IC50 was not above 25 µM.

`CC(C)(C)c1cccc(NC(=O)c2cnc3ccc(Oc4ccnc(C#N)c4)cc3c2)c1` [Compound I-448, N-(3-tert-butylphenyl)-6-[(2-cyanopyridin-4-yl)oxy]quinoline-3-carboxamide]: the IC50 was not above 25 µM.

Turning to `CC(=O)Nc1cc(Oc2ccc3c(c2)CC(C(=O)Nc2ccc(C(F)(F)F)cc2)CC3)ccn1` (stereo not drawn) [Compound I-281, 7-{[2-(acetylamino)pyridin-4-yl]oxy}-N-[4-(trifluoromethyl)phenyl]-1,2,3,4-tetrahydronaphthalene-2-carboxamide], the IC50 is not above 25 µM.

With `CC(=O)NCc1cc(Oc2ccc3c(c2)CC(C(=O)Nc2cccc(C(C)(C)C)c2)CC3)ccn1` (stereo not drawn) [Compound I-246, 7-({2-[(acetylamino)methyl]pyridin-4-yl}oxy)-N-(3-tert-butylphenyl)-1,2,3,4-tetrahydronaphthalene-2-carboxamide], the IC50 was not above 25 µM.

Regarding `CN1Cc2ccc(Oc3ccnc(C4=NCCN4)c3)cc2CC1C(=O)Nc1ccc(Cl)c(C(F)(F)F)c1` (stereo not drawn) [Compound I-11, N-[4-Chloro-3-(trifluoromethyl)phenyl]-6-{[2-(4,5-dihydro-1H-imidazol-2-yl)pyridin-4-yl]oxy}-2-methyl-1,2,3,4-tetrahydroisoquinoline-3-carboxamide], the IC50 was not above 25 µM.

As for `O=C(Nc1ccc(Cl)c(C(F)(F)F)c1)C1Cc2cc(Oc3ccnc(C4=NCCN4)c3)ccc2CN1` (stereo not drawn) [Compound I-54, N-[4-chloro-3-(trifluoromethyl)phenyl]-6-{[2-(4,5-dihydro-1H-imidazol-2-yl)pyridin-4-yl]oxy}-1,2,3,4-tetrahydroisoquinoline-3-carboxamide], the IC50 was not above 25 µM.

Turning to `CNC(=O)c1cc(Oc2ccc3c(c2)CC(C(=O)Nc2ccc(CN4CCCC4)c(C(F)(F)F)c2)CC3)ccn1` (stereo not drawn) [Compound I-129, N-methyl-4-{[7-({[4-(pyrrolidin-1-ylmethyl)-3-(trifluoromethyl)phenyl]amino}carbonyl)-5,6,7,8-tetrahydronaphthalen-2-yl]oxy}pyridine-2-carboxamide], the IC50 is not above 25 µM.

On to `O=C(Nc1cc(OC2CCNCC2)cc(C(F)(F)F)c1)c1ccc2ccc(Oc3ccnc(C4=NCCN4)c3)cc2c1` [Compound I-48, 7-{[2-(4,5-dihydro-1H-imidazol-2-yl)pyridin-4-yl]oxy}-N-[3-(piperidin-4-yloxy)-5-(trifluoromethyl)phenyl]-2-naphthamide], for which the IC50 was not above 25 µM.

For `NCc1cc(NC(=O)C2CCc3ccc(Oc4ccnc(C(=O)N5CCCC5)c4)cc3C2)cc(C(F)(F)F)c1` (stereo not drawn) [Compound I-362, N-[3-(aminomethyl)-5-(trifluoromethyl)phenyl]-7-{[2-(pyrrolidin-1-ylcarbonyl)pyridin-4-yl]oxy}-1,2,3,4-tetrahydronaphthalene-2-carboxamide], the IC50 is not above 25 µM.

`CNC(=O)c1cc(Oc2ccc3c(c2)CC(NC(=O)c2cccc(C(C)(C)C)c2)CC3)ccn1` (stereo not drawn) [Compound I-460, 4-({7-[(3-tert-butylbenzoyl)amino]-5,6,7,8-tetrahydronaphthalen-2-yl}oxy)-N-methylpyridine-2-carboxamide]: the IC50 was not above 25 µM.

With `CC(C)NC(=O)c1cc(Oc2ccc3c(c2)CC(C(=O)Nc2cc(CN)cc(C(F)(F)F)c2)CC3)ccn1` (stereo not drawn) [Compound I-229, 4-{[7-({[3-(aminomethyl)-5-(trifluoromethyl)phenyl]amino}carbonyl)-5,6,7,8-tetrahydronaphthalen-2-yl]oxy}-N-isopropylpyridine-2-carboxamide], the IC50 was not above 25 µM.

As to `CC(C)(C)c1cccc(NC(=O)C2CCc3ccc(Oc4ccnc(CN)c4)cc3C2)c1` (stereo not drawn) [Compound I-331, 7-{[2-(aminomethyl)pyridin-4-yl]oxy}-N-(3-tert-butylphenyl)-1,2,3,4-tetrahydronaphthalene-2-carboxamide], the IC50 was not above 25 µM.

As for `CNC(=O)c1cc(Oc2ccc3c(c2)CC(C(=O)Nc2cccc(CN)c2)CC3)ccn1` (stereo not drawn) [Compound I-51, 4-{[7-({[3-(aminomethyl)phenyl]amino}carbonyl)-5,6,7,8-tetrahydronaphthalen-2-yl]oxy}-N-methylpyridine-2-carboxamide], the IC50 was not above 25 µM.

Turning to `CN(C)CC(=O)Nc1cc(Oc2ccc3ccc(C(=O)Nc4ccc(Cl)c(C(F)(F)F)c4)cc3c2)ccn1` [Compound I-138, N-[4-chloro-3-(trifluoromethyl)phenyl]-7-[(2-{[(dimethylamino)acetyl]amino}pyridin-4-yl)oxy]-2-naphthamide], the IC50 was not above 25 µM.

On to `CC(C)(C)c1cccc(NC(=O)C2CCc3ccc(Oc4ccnc(N)c4)cc3C2)c1` (stereo not drawn) [Compound I-235, 7-[(2-aminopyridin-4-yl)oxy]-N-(3-tert-butylphenyl)-1,2,3,4-tetrahydronaphthalene-2-carboxamide], for which the IC50 was not above 25 µM.

Consider `CC(C)(C)c1cccc(NC(=O)C2CCc3ccc(Oc4ccnc(NS(C)(=O)=O)c4)cc3C2)c1` (stereo not drawn) [Compound I-254, N-(3-tert-butylphenyl)-7-({2-[(methylsulfonyl)amino]pyridin-4-yl}-oxy)-1,2,3,4-tetrahydronaphthalene-2-carboxamide], for which the IC50 is not above 25 µM.

Consider `CNC(=O)c1cc(Oc2ccc3c(c2)CC(C(=O)Nc2ccc(CCN)cc2)CC3)ccn1` (stereo not drawn) [Compound I-29, 4-{[7-({[4-(2-aminoethyl)phenyl]amino}carbonyl)-5,6,7,8-tetrahydronaphthalen-2-yl]oxy}-N-methylpyridine-2-carboxamide], for which the IC50 was not above 25 µM.

`CC(C)(C)c1cccc(NC(=O)c2ccc3ccc(Oc4ccnc(C#N)c4)cc3c2)c1` [Compound I-340, N-(3-tert-butylphenyl)-7-[(2-cyanopyridin-4-yl)oxy]-2-naphthamide]: the concentration for half-maximal inhibition (IC50) was not above 25 µM.

Regarding `CNC(=O)c1cc(Oc2ccc3c(c2)CC(NC(=O)c2ccc(Cl)c(C(F)(F)F)c2)CC3)ccn1` (stereo not drawn) [Compound I-444, 4-[(7-{[4-chloro-3-(trifluoromethyl)benzoyl]amino}-5,6,7,8-tetrahydronaphthalen-2-yl)oxy]-N-methylpyridine-2-carboxamide], the IC50 is not above 25 µM.

For the compound `Cn1cc(-c2cc(Oc3ccc4c(c3)CC(C(=O)Nc3cc(CN5CCCC5)cc(C(F)(F)F)c3)CC4)ccn2)cn1` (stereo not drawn) [Compound I-344, 7-{[2-(1-methyl-1H-pyrazol-4-yl)pyridin-4-yl]oxy}-N-[3-(pyrrolidin-1-ylmethyl)-5-(trifluoromethyl)phenyl]-1,2,3,4-tetrahydronaphthalene-2-carboxamide], the IC50 is not above 25 µM.

Consider `O=C(Nc1ccc(Cl)c(C(F)(F)F)c1)c1ccc2ccc(Oc3ccnc(C4=NCCN4)c3)cc2c1` [Compound I-46, N-[4-chloro-3-(trifluoromethyl)phenyl]-7-{[2-(4,5-dihydro-1H-imidazol-2-yl)pyridin-4-yl]oxy}-2-naphthamide], for which the IC50 was not above 25 µM.

For `O=C(Nc1cc(C(F)(F)F)ccc1OCCN1CCNCC1)C1CCc2ccc(Oc3ccnc(C4=NCCN4)c3)cc2C1` (stereo not drawn) [Compound I-261, 7-{[2-(4,5-dihydro-1H-imidazol-2-yl)pyridin-4-yl]oxy}-N-[2-(2-piperazin-1-ylethoxy)-5-(trifluoromethyl)phenyl]-1,2,3,4-tetrahydronaphthalene-2-carboxamide], the IC50 is not above 25 µM.
